pEC50: −log10 of the molar value.
How the values were obtained:
[1] = tested on: T1, CpomOR22; experiment: SSR dose response and GC-SSR in transgenic Drosophila ab3A neurons; set-up: species or system Cydia pomonella
T1 construct: gene OR22

[2] = tested on: T2, CpomOR22; experiment: two-electrode voltage clamp, Xenopus oocytes, dose response; assay type: cell-based, Cydia pomonella
T2 construct: gene OR22; with CpomOrco
Source text: two-electrode voltage clamp, Xenopus oocytes, dose response on CpomOR22 | CpomOR22 dose responsiveness to undecanal and γ-undecalactone across five orders of magnitude

[3] = tested on: T2, CpomOR22; experiment: two-electrode voltage clamp, Xenopus oocytes, dose response; also GC-SSR; assay type: cell-based, Cydia pomonella

**Q.** Which EC50 [1] does the source give for `CCCC/C=C\CCCCC=O` [(Z)−6-undecenal] here?
**A.** 2.903 ± 1.709 µg

**Q.** `CCCCCCCC1CCC(=O)O1` (stereo not drawn) [γ-undecalactone] was tested. Which pEC50 [2] did it give?
**A.** 5.08

**Q.** With `CCCCCCCCCCC=O` [undecanal] as the compound, how does the pEC50 [3] read?
**A.** 4.78
